{"source": "paper PMC7464785", "about": "(Pharmaceutics, 2020)", "experiment": "Pharmacokinetics after oral administration to control, G-ARF and C-ARF rats", "format": "in vivo, Sprague–Dawley rats", "conditions": "for CL renal: read-out: CLR (time-averaged renal clearance); for bioavailability: read-out: F (absolute oral bioavailability)", "protocol": "Rats were randomly divided into three groups: control, G-ARF, and C-ARF rats. Acute renal failure was induced in rats by intraperitoneal injection of gentamicin (100 mg/kg, dissolved in 0.9% NaCl-injectable solution) daily for 8 days or by a single intraperitoneal injection of cisplatin (7.5 mg/kg, dissolved in 0.9% NaCl-injectable solution), while control rats were injected with 0.9% NaCl-injectable solution only. […] BUN (Blood urea nitrogen) levels were measured in rats on the last day of induction using a BUN detection kit (Asan Pharmaceutical, Seoul, Korea). Rats with a urea nitrogen level of 36 mg/dL or higher were considered to be acute renal failure-induced and were selected for the study.\nFor oral and intravenous administration, pretreatment and surgical procedures were performed as previously reported. For oral study, the rats were restricted from eating food overnight but water was freely accessible. The next day, after anesthesia with ketamine at a dose of 100 mg/kg, polyethylene 50 tubes (Clay Adams, Parsippany, NJ, USA) was cannulated into the carotid artery for blood collection. For intravenous study, polyethylene 50 tubes were cannulated into the carotid artery and jugular vein for blood collection and drug administration, respectively. After surgery, rats were allowed to rest for 2–3 h to recover from anesthesia and were free in the individual metabolic cage during the experiment.\nBlood samples (110 µL) were collected through the carotid artery at 0 (prior to drug administration), 5, 15, 30, 45, 60, 90, 120, 180, 240, 360, 480, 600, and 720 min. At 24 h after drug administration, urine and gastrointestinal tract samples were collected and handled similarly to those in the intravenous study.\nA 50-μL aliquot of biological sample was mixed with 1 μL hydrocortisone (5 mg/mL); then, 20 μL of 20% ammonia solution was added, mixed with a vortex-mixer (Scientific Industries, Bohemia, NY, USA) for 30 s, and extracted with 750 µL ethyl acetate. The organic layer was collected, evaporated on a thermobath (Eyela, Tokyo, Japan) under a gentle stream of nitrogen gas at 40 °C and redissolved by adding 130 µL 20% acetonitrile, and 50 µL of each reconstituted sample was analyzed by HPLC [12, 22].\nThe reconstituted biological samples were filtered through a 0.45-µm filter (Millipore, Billerica, MA, USA) and analyzed with a reversed-phase column (C18; 25 cm × 4.6 mm, 5 µm; Young Jin Biochrom, Seongnam, Korea) using a UV detector at 287 nm. The mobile phase consisted of 10 mM ammonium acetate buffer (pH 5.0) and acetonitrile at a ratio of 69.5:30.5 (v/v) with a flow rate of 1.0 mL/min.\nTo estimate pharmacokinetic parameters such as terminal half-life, the apparent volume of distribution at steady state (Vss), area under plasma concentration-time curves from time zero to time infinity (AUC), mean residence time (MRT), and time-averaged total body (CL), and renal (CLR) and nonrenal (CLNR) clearances, standard methods were applied using noncompartmental analysis (WinNonlin, Pharsight Corporation, Mountain View, CA, USA). AUCs were calculated using the trapezoidal rule-extrapolation method. The peak plasma concentration (Cmax) and time that the plasma concentration was peak (Tmax) were directly confirmed from plasma concentration-time curves. To calculate the average values of clearances, terminal half-life, and Vss, the harmonic mean method was applied.", "key": {"[1]": {"conditions": "Sprague-Dawley, rat, plasma, po, 20 mg/kg, C-ARF rats"}, "[2]": {"conditions": "Sprague-Dawley, rat, plasma, po, 20 mg/kg, G-ARF rats"}, "[3]": {"conditions": "Sprague-Dawley, rat, plasma, po, 20 mg/kg, control rats"}, "[4]": {"conditions": "control rats, oral 20 mg/kg, 20 mg/kg"}}, "note": "“And” between values parts separate entries of the source, which are not always exact repeats. Equal values may be shown once. Read-outs that look alike come from different tables or passages of the source.", "data": [{"smiles": "C[C@@H]1CCN(C(=O)CC#N)C[C@@H]1N(C)c1ncnc2[nH]ccc12", "note": "[tofacitinib, Tofacitinib]", "values": [{"measurement": "Ae0–24 h (dose excreted in the 24-h urine)", "setting": "C-ARF rats, oral 20 mg/kg", "result": "1.16 ± 1.37 % of dose"}, {"measurement": "decrease of Ae0–24 h versus control rats", "setting": "C-ARF rats, oral 20 mg/kg", "result": 81.3, "unit": "%"}, {"measurement": "increase of AUC versus control rats", "setting": "C-ARF rats, oral 20 mg/kg", "result": 247, "unit": "%"}, {"measurement": "increase of Cmax versus control rats", "setting": "C-ARF rats, oral 20 mg/kg", "result": 141, "unit": "%"}, {"measurement": "GI24 h (dose remaining in the gastrointestinal tract at 24 h)", "setting": "C-ARF rats, oral 20 mg/kg, 20 mg/kg", "result": "0.505 % of dose and 0.505 ± 0.535 % of dose"}, {"measurement": "Ae0–24 h (dose excreted in the 24-h urine)", "setting": "G-ARF rats, oral 20 mg/kg", "result": "4.82 ± 3.06 % of dose"}, {"measurement": "decrease of Ae0–24 h versus control rats", "setting": "G-ARF rats, oral 20 mg/kg", "result": 22.4, "unit": "%"}, {"measurement": "decrease of CLR versus control rats", "setting": "G-ARF rats, oral 20 mg/kg", "result": 69.8, "unit": "%"}, {"measurement": "increase of AUC versus control rats", "setting": "G-ARF rats, oral 20 mg/kg", "result": 142, "unit": "%"}, {"measurement": "increase of Cmax versus control rats", "setting": "G-ARF rats, oral 20 mg/kg", "result": 198, "unit": "%"}, {"measurement": "GI24 h (dose remaining in the gastrointestinal tract at 24 h)", "setting": "G-ARF rats, oral 20 mg/kg, 20 mg/kg", "result": "1.27 % of dose and 1.27 ± 1.72 % of dose"}, {"measurement": "AUC", "setting": "[1]", "result": 12500, "unit": "ng·h/mL"}, {"measurement": "Tmax", "setting": "[1]", "result": 41.3, "unit": "min"}, {"measurement": "CL renal", "setting": "[1]", "result": "0.3 ± 0.495", "unit": "mL/min/kg"}, {"measurement": "Cmax", "setting": "Sprague-Dawley, rat, plasma, po, 20 mg/kg, C-ARF rats, read-out: Cmax", "result": "4200 ± 3030", "unit": "ng/mL"}, {"measurement": "bioavailability", "setting": "[1]", "result": 54.3, "unit": "%"}, {"measurement": "AUC", "setting": "[2]", "result": 8750, "unit": "ng·h/mL"}, {"measurement": "Tmax", "setting": "[2]", "result": 30.8, "unit": "min"}, {"measurement": "CL renal", "setting": "[2]", "result": "1.71 ± 0.871", "unit": "mL/min/kg"}, {"measurement": "Cmax", "setting": "Sprague-Dawley, rat, plasma, po, 20 mg/kg, G-ARF rats, read-out: Cmax", "result": "5180 ± 2590", "unit": "ng/mL"}, {"measurement": "bioavailability", "setting": "[2]", "result": 60.7, "unit": "%"}, {"measurement": "AUC", "setting": "[3]", "result": 3620, "unit": "ng·h/mL"}, {"measurement": "Tmax", "setting": "[3]", "result": 71.9, "unit": "min"}, {"measurement": "CL renal", "setting": "[3]", "result": "5.66 ± 1.03", "unit": "mL/min/kg"}, {"measurement": "bioavailability", "setting": "[3]", "result": 41.3, "unit": "%"}, {"measurement": "GI24 h", "setting": "across control, G-ARF and C-ARF rats, oral 20 mg/kg", "result": "less than 1.27 % of oral dose"}, {"measurement": "Cmax", "setting": "control rats, oral 20 mg/kg", "result": "1740 ± 606", "unit": "ng/mL"}, {"measurement": "Ae0–24 h (dose excreted in the 24-h urine)", "setting": "[4]", "result": "6.21 % of dose and 6.21 ± 1.12 % of dose"}, {"measurement": "GI24 h (dose remaining in the gastrointestinal tract at 24 h)", "setting": "[4]", "result": "0.231 % of dose and 0.231 ± 0.235 % of dose"}]}]}
